Reference: US5686486A, “4-hydroxy-benzopyran-2-ones and 4-hydroxy-cycloalkyl[b]pyran-2-ones useful to treat retroviral infections” (priority 1995, dated 1997)
Several values for one entry are separate records, joined by “and”; a condition that tells them apart may be missing. Identical values can stand only once. Like-named read-outs stand apart in the source and are kept apart here.

Legend:
HIV-1 protease [1] = molecular target: T1, HIV-1 protease (Human immunodeficiency virus type 1 group M subtype B, UniProt P04585); assay: biochemical
Procedure: Determination of Ki values utilizes the same materials and equipment employed for percent inhibition studies. Two-fold serial dilutions are made for a given inhibitor from 2, 3 or 4 starting concentrations with a total of 24, 36 or 48 individual inhibitor concentrations. These dilutions are performed utilizing the BioMek robotics system. The assay consists of 10 μL of 40 nM HIV-1 protease, 10 μL of the various inhibitor concentrations, and 20 μL of 200 μM substrate (40 μL total). The reaction is allowed to proceed for 90 min at room temperature, terminated with 40 μL of avidin beads and processed (supra vide). An inhibitor with a known Ki is run in parallel to verify the validity of the assay. The data is processed utilizing a computer program employing a nonlinear least square analysis of the data to generate the Ki values.

HIV-1 protease [2] = molecular target: T1, HIV-1 protease; assay: biochemical; settings: for inhibition at 0.37 µM: read-out: HIV-1 Protease % Inhib, dose 0.370 uM; for inhibition at 1.1 µM: read-out: HIV-1 Protease % Inhib, dose 1.100 uM; for inhibition at 3.3 µM: read-out: HIV-1 Protease % Inhib, dose 3.300 uM; for inhibition at 10 µM: read-out: HIV-1 Protease % Inhib, dose 10.000 uM; for inhibition at 30 µM: read-out: HIV-1 Protease % Inhib, dose 30.000 uM; for inhibition at 0.123 µM: read-out: HIV-1 Protease % Inhib, dose 0.123 uM
In short: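 Percent inhibition derived from fluorescent cleavage product separated by filtration after streptavidin-bead capture of intact biotin/FITC substrate. Reaction: enzyme (10 μl, 0.1 μM stock) with substrate (20 μl, 0.2 μM stock) and compound, 1 h at room temperature in dark, pH 5.5 acetate buffer with 1.0 M NaCl and 0.05% NP-40.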

| Compound | Ki (HIV-1 protease [1]; read-out: HIV-1 FITC KI) | inhibition at 0.37 µM (HIV-1 protease [2]) [%] | inhibition at 1.1 µM (HIV-1 protease [2]) [%] | inhibition at 3.3 µM (HIV-1 protease [2]) [%] | inhibition at 10 µM (HIV-1 protease [2]) [%] | inhibition at 30 µM (HIV-1 protease [2]) [%] | inhibition at 0.123 µM (HIV-1 protease [2]) [%] | other results |
| --- | --- | --- | --- | --- | --- | --- | --- | --- |
| Nc1cc(NS(=O)(=O)c2ccccc2)cc(C(c2c(O)c3c(oc2=O)CCCCCC3)C2CC2)c1 (stereo not shown) [Example 486] | 55 nM | 40 | 74 | 97.5 | 126 | 109 | – | – |
| I.O=c1oc2c(c(O)c1C(c1cccc(NS(=O)(=O)CCCN3CCOCC3)c1)C1CC1)CCCCCC2 (stereo not shown) [Example 365B (Third Title Compound), N-[3-[Cyclopropyl(5,6,7,8,9,10-hexahydro-4-hydroxy-2-oxo-2H-cycloocta[b]pyran-3-yl)methyl]phenyl]-4-morpholinepropanesulfonamide hydrogen iodide salt] | 14.3 nM | – | – | – | – | – | – | HIV-1 Protease % Inhib (HIV-1 protease [2]; dose 0.123 uM): 29.06%; HIV-1 Protease % Inhib (HIV-1 protease [2]; dose 0.370 uM): 56.47%; HIV-1 Protease % Inhib (HIV-1 protease [2]; dose 1.100 uM): 93.46%; HIV-1 Protease % Inhib (HIV-1 protease [2]; dose 3.300 uM): 90.63%; HIV-1 Protease % Inhib (HIV-1 protease [2]; dose 10.000 uM): 90.94%; HIV-1 Protease % Inhib (HIV-1 protease [2]; dose 30.000 uM): 85.31% |
| CCCC1CCCCCc2c1oc(=O)c([C@H](c1ccccc1)C1CC1)c2O (mixture of isomers) [Example 235, 3-(S)-(Cyclopropylphenylmethyl)-4-hydroxy-10-(R and S)-propyl-5,6,7,8,9,10-hexahydro-cycloocta[b]pyran-2-one] | 11 nM | 71.8 | 92.7 | 105 | 103 | 99.5 | 24.8 | – |
| CCCC(c1cccc(NS(=O)(=O)c2cccnc2)c1)c1c(O)c2c(oc1=O)CCCCCC2 (stereo not shown) [Example 433, 3-Pyridinesulfonamide, N-[3-[1-(5,6,7,8,9,10-hexahydro-4-hydroxy-2-oxo-2H-cycloocta[b]pyran-3-yl)butyl]phenyl]-] | 2.24 nM | 109 | 104 | 104 | 109 | 108 | 103 | – |
| NC(=O)c1ccc(S(=O)(=O)Nc2cccc(C(c3c(O)c4c(oc3=O)CCCCCC4)C3CC3)c2)cc1 (stereo not shown) [Example 365A, 4-[[[3-[Cyclopropyl(5,6,7,8,9,10-hexahydro-4-hydroxy-2-oxo-2H-cycloocta[b]pyran-3-yl)methyl]phenyl]amino]sulfonyl]-benzamide] | 1.86 nM | 106 | 115 | 116 | 117 | 116 | 83.8 | – |
| CCCC(c1cccc(NS(=O)(=O)c2ccc(Cl)cc2)c1)c1c(O)c2c(oc1=O)CCCCCC2 (stereo not shown) [Example 377, Benzenesulfonamide, 4-chloro-N-[3-[1-(5,6,7,8,9,10-hexahydro-4-hydroxy-2-oxo-2H-cycloocta[b]pyran-3-yl)butyl]phenyl]-] | 4 nM | – | – | – | – | 94.7 | 92.9 | HIV-1 Protease % Inhib (HIV-1 protease [2]; dose 3.300 uM): 66.07% and 114.03%; HIV-1 Protease % Inhib (HIV-1 protease [2]; dose 10.000 uM): 83.74% and 107.37%; HIV-1 Protease % Inhib (HIV-1 protease [2]; dose 30.000 uM): 101.29% |
| O=c1oc2c(c(O)c1C(c1cccc(S(=O)(=O)Nc3ccccc3)c1)C1CC1)CCCCCC2 (stereo not shown) [Example 400, N-Phenyl-3-[cyclopropyl(5,6,7,8,9, 10-hexahydro-4-hydroxy-2-oxo-2H-cycloocta[b]pyran-3-yl)methyl]-benzenesulfonamide] | 35.8 nM | 54.8 | 78.7 | 94.7 | 114 | 109 | 17.4 | – |
| CC(C)(C)OC(=O)NCCC(=O)Nc1cccc(C(c2c(O)c3c(oc2=O)CCCCCC3)C2CC2)c1 (stereo not shown) [Example 196, Carbamic acid, [3-[[3-[cyclopropyl(5,6,7,8,9,10-hexahydro-4-hydroxy-2-oxo-2H-cycloocta[b]pyran-3-yl)methyl]phenyl]amino]-3-oxopropyl]-, 1,1-dimethylethyl ester] | 3 nM | 81.2 | 91.8 | 97.9 | 105 | 95.8 | 68 | – |
| COCCC1CCCCc2c1oc(=O)c(C(c1ccccc1)C1CC1)c2O (stereo not shown) [Example 194, 3-(Cyclopropylphenylmethyl)-6,7,8,9-tetrahydro4-hydroxy-9-(2-methoxyethyl)-cyclohepta[b]pyran-2(5H)-one] | 28 nM | 39.7 | – | – | – | – | – | HIV-1 Protease % Inhib (HIV-1 protease [2]; dose 1.100 uM): 81.89%; HIV-1 Protease % Inhib (HIV-1 protease [2]; dose 3.300 uM): 102.84%; HIV-1 Protease % Inhib (HIV-1 protease [2]; dose 10.000 uM): 108.17%; HIV-1 Protease % Inhib (HIV-1 protease [2]; dose 30.000 uM): 107.45% |
| COc1ccc2c(O)c(C(c3cccc(NC(=O)CCNC(=O)OC(C)(C)C)c3)C3CC3)c(=O)oc2c1 (stereo not shown) [Example 167, Carbamic acid, [3-[[3-[cyclopropyl(4-hydroxy-7-methoxy-2-oxo-2H-1-benzopyran-3-yl)methyl]phenyl]amino]-3-oxopropyl]-, 1,1-dimethylethyl ester] | – | – | – | – | – | – | – | Ki (HIV-1 protease [1]; HIV-1 FITC KI): 28 nM; inhibition at 0.41 µM (HIV-1 protease [2]; read-out: HIV-1 Protease % Inhib, dose 0.410 uM): 83.2%; inhibition at 1.23 µM (HIV-1 protease [2]; read-out: HIV-1 Protease % Inhib, dose 1.230 uM): 99.5%; inhibition at 3.7 µM (HIV-1 protease [2]; read-out: HIV-1 Protease % Inhib, dose 3.700 uM): 113%; inhibition at 11 µM (HIV-1 protease [2]; read-out: HIV-1 Protease % Inhib, dose 11.000 uM): 114%; inhibition at 33 µM (HIV-1 protease [2]; read-out: HIV-1 Protease % Inhib, dose 33.000 uM): 114%; inhibition at 100 µM (HIV-1 protease [2]; read-out: HIV-1 Protease % Inhib, dose 100.000 uM): 116% |
| O=c1oc2c(c(O)c1[C@@H](c1cccc(NS(=O)(=O)/C=C/c3ccccc3)c1)C1CC1)CCCCCC2 [Example 261, (+)-N-[3-[Cyclopropyl(5,6,7,8,9,10-hexahydro-4-hydroxy-2-oxo-2H-cycloocta[b]pyran-3-yl)methyl]phenyl]-2-phenyl-[(E)]-ethenesulfonamide] | 3.1 nM | – | – | – | – | – | – | – |
| O=c1oc2c(c(O)c1C(c1ccccc1)C1CC1)CCCCC2 (single isomer, unassigned) [Example 231, (R or S)-3-(Cyclopropylphenylmethyl)-6,7,8,9-tetrahydro-4-hydroxy-cyclohepta[b]pyran-2(5H)-one] | 109 nM and 126 nM | – | – | – | – | – | – | – |
| O=c1oc2c(c(O)c1[C@@H](c1cccc(NS(=O)(=O)c3ccc(Cl)cc3)c1)C1CC1)CCCCCC2 [Example 251, (+)-4-Chloro-N-[3-[cyclopropyl(5,6,7,8,9,10-hexahydro-4-hydroxy-2-oxo-2H-cycloocta[b]pyran-3-yl)methyl]phenyl]-benzenesulfonamide] | 1.25 nM | – | – | – | – | – | – | – |
| CCCC1CCCCCc2c1oc(=O)c([C@H](c1ccccc1)C1CC1)c2O (single isomer, unassigned) [Example 237, 3-(S)-(Cyclopropylphenylmethyl)-4-hydroxy-10-(R or S)-propyl-5,6,7,8,9,10-hexahydro-cycloocta[b]pyran-2-one] | 60 nM and 117 nM | – | – | – | – | – | – | – |
| O=c1oc2c(c(O)c1[C@H](c1cccc(NS(=O)(=O)c3ccccc3)c1)C1CC1)CCCCCC2 [Example 258, (-)-N-[3-[Cyclopropyl(5,6,7,8,9,10-hexahydro4-hydroxy-2-oxo-2H-cycloocta[b]pyran-3-yl)methyl]phenyl]-benzenesulfonamide] | 7.6 nM | – | – | – | – | – | – | – |
| N#Cc1ccc(S(=O)(=O)Nc2cccc([C@H](c3c(O)c4c(oc3=O)CCCCCC4)C3CC3)c2)cc1 [Example 259, (+)4-Cyano-N-[3-[cyclopropyl(5,6,7,8,9,10-hexahydro4-hydroxy-2-oxo-2H-cycloocta[b]pyran-3-yl)methyl]phenyl]-benzenesulfonamide] | 0.71 nM | – | – | – | – | – | – | – |
